Where a name gives a salt, the structure may show the parent alone.
Legend:
alpha-1-receptor = molecular target: T1, alpha-1-receptor (Rattus norvegicus, UniProt P15823); assay: Radioligand binding, alpha-1 adrenoceptor, rat liver homogenates, [^3 H]-prazosin
T1 construct: rat liver homogenates; from tissue; host or cells: rat liver homogenates
T1 sequence (P15823 1-515): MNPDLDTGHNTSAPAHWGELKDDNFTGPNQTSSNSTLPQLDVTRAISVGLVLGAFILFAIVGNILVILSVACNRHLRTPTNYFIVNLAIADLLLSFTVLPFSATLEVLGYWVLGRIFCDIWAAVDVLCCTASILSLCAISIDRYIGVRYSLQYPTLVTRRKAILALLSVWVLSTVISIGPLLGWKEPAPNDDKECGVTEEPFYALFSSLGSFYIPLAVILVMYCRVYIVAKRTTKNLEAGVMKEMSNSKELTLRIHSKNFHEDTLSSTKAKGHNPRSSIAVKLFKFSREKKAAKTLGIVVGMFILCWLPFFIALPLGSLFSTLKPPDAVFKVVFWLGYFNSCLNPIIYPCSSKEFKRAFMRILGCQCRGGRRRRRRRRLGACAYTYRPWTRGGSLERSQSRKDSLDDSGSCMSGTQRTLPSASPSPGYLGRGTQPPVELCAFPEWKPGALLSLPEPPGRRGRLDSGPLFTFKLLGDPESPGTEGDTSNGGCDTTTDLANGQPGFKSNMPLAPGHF
Protocol: (§1) The compounds were assessed for alpha-adrenergic receptor subtype selectivity by use of radioligand binding techniques as described previously (DeBernardis et.al. J. Med. Chem. 28, 1398 (1985)).

alpha-2-receptor = assay: Radioligand binding, alpha-2 adrenoceptor, rat cerebral cortices, [^3 H]-rauwolscine; conditions: for Ki: rat cerebral cortices, [^3 H]-rauwolscine; for alpha-2 - Selectivity Ki alpha-1/Ki alpha 2: ratio of Ki alpha-1 to Ki alpha-2
Protocol: as §1

intraocular pressure = assay: Effect of topically administered compounds on intraocular pressure of rabbits; assay type: in vivo, New Zealand rabbits; conditions: 0.3% soln., 0.1 ml topical
Protocol: The intraocular pressure lowering effects of the compounds were evaluated in unanesthetized male albino, New Zealand rabbits weighing 2.0 to 2.5 kg. The rabbits were placed in Plas Labs restraining devices for the duration of the experiment. Intraocular pressure (IOP) was measured with a Bausch and Lomb Applamatic Tonometer and recorded as the average of three individual readings at each time point in the experiment. Baseline IOP values were established at three time points separated by 30 minutes. Each compound or vehicle was applied topically to the cornea in a volume of 0.1 ml to one eye in each six rabbits. The contralateral eye was untreated. IOP was recorded at 5, 15, 30, 60 and 90 minutes after dosing.

Row | Ki (alpha-1-receptor) [nM] | Ki (alpha-2-receptor) [nM] | alpha-2 - Selectivity Ki alpha-1/Ki alpha 2 (alpha-2-receptor) | Compound | % Change in Intraocular Pressure After Treatment Compared to Untreated Eye (intraocular pressure; 5 minutes) [%] | % Change in Intraocular Pressure After Treatment Compared to Untreated Eye (intraocular pressure; 15 minutes) [%] | % Change in Intraocular Pressure After Treatment Compared to Untreated Eye (intraocular pressure; 30 minutes) [%] | % Change in Intraocular Pressure After Treatment Compared to Untreated Eye (intraocular pressure; 60 minutes) [%] | % Change in Intraocular Pressure After Treatment Compared to Untreated Eye (intraocular pressure; 90 minutes) [%]
1 | 1130 | 10 | 113 | CN(CCc1cccs1)CC1CCCc2cc(Cl)ccc21 (centres unmarked) [Example 49, 1-((N-Methylamino)meth-N-(2-(2-thienyl)ethyl))-6-chloro tetralin hydrochloride] | – | – | – | – | –
2 | 220 | 4.9 | 45 | Fc1ccc2c(c1)CCCC2CN1CCC(c2cccs2)C1 (centres unmarked) [Example 149, 6-Fluoro-1-(3-(2-thienyl)pyrrolidino-1-methyl) tetralin methanesulfonate] | – | – | – | – | –

Row | Compound | Ki (alpha-1-receptor) [nM] | Ki (alpha-2-receptor) [nM] | alpha-2 - Selectivity Ki alpha-1/Ki alpha 2 (alpha-2-receptor) | % Change in Intraocular Pressure After Treatment Compared to Untreated Eye (intraocular pressure; 5 minutes) [%] | % Change in Intraocular Pressure After Treatment Compared to Untreated Eye (intraocular pressure; 15 minutes) [%] | % Change in Intraocular Pressure After Treatment Compared to Untreated Eye (intraocular pressure; 30 minutes) [%] | % Change in Intraocular Pressure After Treatment Compared to Untreated Eye (intraocular pressure; 60 minutes) [%] | % Change in Intraocular Pressure After Treatment Compared to Untreated Eye (intraocular pressure; 90 minutes) [%]
3 | CN(CCc1ccccc1)CC1CCCc2cc(O)ccc21 (centres unmarked) [11 (HCl salt)] | 254 | 1.7 | 149 | -38 | -55 | -54 | -44 | -20

Reference: patent US5140040A, “1-aminomethyl-1,2,3,4-tetrahydronaphthalenes” (Abbott Laboratories, priority 1991, dated 1992)
